What all share (format): biochemical
One test concerns the target T1, human TOR (Homo sapiens, UniProt P42345).
T1 construct: FLAG
As to the kind of experiment: mTOR enzyme assay (DELFIA, His6-S6K substrate). The settings on record: read-out: mTOR Kinase Avg. IC50.

The target of a further test is PI3K-gamma (Homo sapiens, UniProt P48736). The test is described as follows: PI3K-gamma fluorescence polarization assay. The note with it: PI3Kγ Avg. IC50. The procedure, abridged:
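FP displacement read-out: 100 nM GST-GRP1 PH domain plus 5 nM BODIPY-TMR-IP4 added after EDTA stop. Preceding kinase step: 5 ng enzyme, diC8-PI(4,5)P2 2.5 μM, ATP 25 μM, MgCl2 2.5 mM, HEPES 5 mM pH 7, one hour, 25° C.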
Background: Fluorescence polarisation rises when a labelled molecule tumbles more slowly, as on binding a larger partner.

Another test concerns the target PI3K-alpha (Homo sapiens, UniProt P42336). The test is described as follows: PI3K-alpha fluorescence polarization assay. The settings on record: read-out: PI3Kα Avg. IC50.

One may read the IC50 as the concentration needed to halve the response being measured.

Sequence of PI3K-gamma (P48736 whole entry, species assumed, the tested form may be a part): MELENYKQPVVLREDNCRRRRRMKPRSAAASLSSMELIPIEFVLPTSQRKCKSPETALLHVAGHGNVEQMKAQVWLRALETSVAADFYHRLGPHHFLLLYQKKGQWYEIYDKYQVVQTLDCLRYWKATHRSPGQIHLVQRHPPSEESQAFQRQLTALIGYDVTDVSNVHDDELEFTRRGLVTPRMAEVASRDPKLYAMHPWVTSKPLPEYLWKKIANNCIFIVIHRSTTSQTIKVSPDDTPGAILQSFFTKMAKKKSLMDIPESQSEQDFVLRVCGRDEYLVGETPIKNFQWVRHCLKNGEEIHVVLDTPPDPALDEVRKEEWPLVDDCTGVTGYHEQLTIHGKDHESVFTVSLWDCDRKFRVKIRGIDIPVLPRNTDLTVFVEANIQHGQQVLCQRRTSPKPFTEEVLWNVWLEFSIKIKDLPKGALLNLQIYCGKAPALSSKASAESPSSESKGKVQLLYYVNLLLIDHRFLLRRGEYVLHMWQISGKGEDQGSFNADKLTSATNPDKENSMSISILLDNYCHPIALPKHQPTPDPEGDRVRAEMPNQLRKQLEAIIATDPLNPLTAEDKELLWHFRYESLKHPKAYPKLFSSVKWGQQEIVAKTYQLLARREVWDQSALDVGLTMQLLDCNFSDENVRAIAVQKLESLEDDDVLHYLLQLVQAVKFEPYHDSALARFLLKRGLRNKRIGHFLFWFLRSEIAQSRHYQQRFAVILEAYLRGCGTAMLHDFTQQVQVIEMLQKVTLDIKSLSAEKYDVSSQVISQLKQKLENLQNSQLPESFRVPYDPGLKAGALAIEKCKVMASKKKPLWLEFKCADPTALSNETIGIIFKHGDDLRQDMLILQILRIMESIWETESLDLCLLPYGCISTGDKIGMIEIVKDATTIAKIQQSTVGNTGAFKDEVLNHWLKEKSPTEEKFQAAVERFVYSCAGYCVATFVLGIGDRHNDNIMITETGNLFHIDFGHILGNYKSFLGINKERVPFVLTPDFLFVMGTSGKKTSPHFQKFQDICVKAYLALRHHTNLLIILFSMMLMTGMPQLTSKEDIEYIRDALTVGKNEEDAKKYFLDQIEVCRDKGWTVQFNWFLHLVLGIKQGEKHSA
Sequence of PI3K-alpha (P42336 whole entry, species assumed): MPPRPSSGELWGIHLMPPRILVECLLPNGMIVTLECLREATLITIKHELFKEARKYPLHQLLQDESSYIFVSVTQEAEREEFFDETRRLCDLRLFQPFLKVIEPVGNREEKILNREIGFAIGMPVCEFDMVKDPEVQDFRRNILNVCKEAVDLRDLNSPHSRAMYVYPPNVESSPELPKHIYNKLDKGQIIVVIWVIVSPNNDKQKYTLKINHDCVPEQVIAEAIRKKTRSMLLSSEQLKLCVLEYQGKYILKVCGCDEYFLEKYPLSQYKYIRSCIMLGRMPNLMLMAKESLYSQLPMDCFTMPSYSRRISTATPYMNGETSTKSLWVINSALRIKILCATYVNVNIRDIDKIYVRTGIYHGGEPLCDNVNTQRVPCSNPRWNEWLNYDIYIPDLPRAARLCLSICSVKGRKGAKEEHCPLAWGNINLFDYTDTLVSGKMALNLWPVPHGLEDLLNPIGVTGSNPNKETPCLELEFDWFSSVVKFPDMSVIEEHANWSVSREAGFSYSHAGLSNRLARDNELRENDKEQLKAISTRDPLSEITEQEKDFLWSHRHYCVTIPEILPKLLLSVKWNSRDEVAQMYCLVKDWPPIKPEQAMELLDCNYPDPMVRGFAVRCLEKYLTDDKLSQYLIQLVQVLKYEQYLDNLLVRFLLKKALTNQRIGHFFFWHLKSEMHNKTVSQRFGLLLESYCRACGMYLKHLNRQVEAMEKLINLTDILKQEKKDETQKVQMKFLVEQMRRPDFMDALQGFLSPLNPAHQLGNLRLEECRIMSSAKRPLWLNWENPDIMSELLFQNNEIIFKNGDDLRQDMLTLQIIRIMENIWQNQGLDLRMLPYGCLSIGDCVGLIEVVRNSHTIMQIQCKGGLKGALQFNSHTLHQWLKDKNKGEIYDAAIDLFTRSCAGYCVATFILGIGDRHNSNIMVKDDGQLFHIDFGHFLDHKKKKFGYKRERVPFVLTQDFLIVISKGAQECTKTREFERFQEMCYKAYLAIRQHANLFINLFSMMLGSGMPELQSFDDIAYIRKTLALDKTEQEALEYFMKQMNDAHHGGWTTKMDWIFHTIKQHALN
Sequence of PI3K-alpha (P27986 whole entry partner, species assumed): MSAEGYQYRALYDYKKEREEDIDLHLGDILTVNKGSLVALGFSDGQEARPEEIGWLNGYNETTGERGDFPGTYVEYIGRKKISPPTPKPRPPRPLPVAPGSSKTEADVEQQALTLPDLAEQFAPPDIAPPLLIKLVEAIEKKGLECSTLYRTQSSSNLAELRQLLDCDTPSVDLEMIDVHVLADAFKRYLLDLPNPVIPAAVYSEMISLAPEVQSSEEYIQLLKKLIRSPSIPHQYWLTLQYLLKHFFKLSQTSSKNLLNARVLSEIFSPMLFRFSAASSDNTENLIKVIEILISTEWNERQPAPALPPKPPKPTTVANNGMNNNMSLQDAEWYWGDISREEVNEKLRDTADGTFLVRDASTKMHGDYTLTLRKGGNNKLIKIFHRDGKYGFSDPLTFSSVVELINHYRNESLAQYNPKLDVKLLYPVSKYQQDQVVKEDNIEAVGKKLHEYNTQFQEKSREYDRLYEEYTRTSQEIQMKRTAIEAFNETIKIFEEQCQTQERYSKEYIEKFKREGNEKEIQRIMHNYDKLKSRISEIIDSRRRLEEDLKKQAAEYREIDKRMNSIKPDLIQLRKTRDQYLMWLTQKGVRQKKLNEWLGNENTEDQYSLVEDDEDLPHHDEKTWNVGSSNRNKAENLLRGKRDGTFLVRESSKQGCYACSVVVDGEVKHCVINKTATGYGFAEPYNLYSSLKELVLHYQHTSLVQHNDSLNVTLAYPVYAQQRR

As to `COc1ccc2[nH]c(-c3c(C)nn(C)c3C)c(/C=C3\Oc4ccc(NC(=O)Nc5ccc(C(=O)N(C)C)cc5)cc4C3=O)c2c1` [Compound 704, 4-({[(2Z)-2-{[5-methoxy-2-(1,3,5-trimethyl-1H-pyrazol-4-yl)-1H-indol-3-yl]methylidene}-3-oxo-2,3-dihydro-1-benzofuran-5-yl]carbamoyl}amino)-N,N-dimethylbenzamide], the results for the IC50 at human TOR, against PI3K-gamma and at PI3K-alpha were 4 nM, 4 nM and 0.6 nM, respectively.
For the compound `CNC(=O)Nc1ccc2c(c1)C(=O)/C(=C/c1c(-c3c(C)nn(C)c3C)[nH]c3c(C)cc(OC)cc13)O2` [Compound 726, 1-[(2Z)-2-{[5-methoxy-7-methyl-2-(1,3,5-trimethyl-1H-pyrazol-4-yl)-1H-indol-3-yl]methylidene}-3-oxo-2,3-dihydro-1-benzofuran-5-yl]-3-methylurea], the IC50 on human TOR came to 18 nM; at PI3K-gamma, 13.7 nM; at PI3K-alpha, 1.37 nM.
For `CCn1c(C)c(/C=C2\Oc3ccc(NC(=O)Nc4ccc(C(=O)NCCNC)cc4)cc3C2=O)c2cc(OC)ccc21` [Compound 659, 4-[({(2Z)-2-[(1-ethyl-5-methoxy-2-methyl-1H-indol-3-yl)methylene]-3-oxo-2,3-dihydro-1-benzofuran-5-yl}carbamoyl)amino]-N-[2-(methylamino)ethyl]benzamide] the same measures were 15 nM, 2.2 nM and 0.3 nM.
For `O=C1C(=Cc2c(-c3ccccc3)n(CCN3CCCC3)c3ccccc23)Oc2cc(O)cc(O)c21` [Example 157, 4,6-dihydroxy-2-{[2-phenyl-1-(2-pyrrolidin-1-ylethyl)-1H-indol-3-yl]methylene}-1-benzofuran-3(2H)-one] the same measures were 2500 nM, 2430 nM and 1520 nM.
On the same counts, the results for `CNCCNC(=O)c1ccc(NC(=O)Nc2ccc3c(c2)C(=O)/C(=C/c2c(C)n(C)c4ccc(OC)cc24)O3)cc1` [Compound 661, 4-[({(2Z)-2-[(5-methoxy-1,2-dimethyl-1H-indol-3-yl)methylene]-3-oxo-2,3-dihydro-1-benzofuran-5-yl}carbamoyl)amino]-N-[2-(methylamino)ethyl]benzamide] are 6 nM, 2 nM and 0.3 nM.
On to `COc1ccc2[nH]cc(/C=C3\Oc4c(ccc(O)c4O)C3=O)c2c1` [Example 62, (2Z)-6,7-dihydroxy-2-[(5-methoxy-1H-indol-3-yl)methylene]-1-benzofuran-3(2H)-one], for which the IC50 worked out at 16000 nM at human TOR, 3770 nM on PI3K-gamma and 673 nM on PI3K-alpha.
For `COc1ccc2c(c1)c(/C=C1\Oc3ccc(NC(=O)Nc4cccnc4)cc3C1=O)c(C)n2CCN1CCN(C)CC1` [Compound 617, 1-[(2Z)-2-({5-methoxy-2-methyl-1-[2-(4-methylpiperazin-1-yl)ethyl]-1H-indol-3-yl}methylidene)-3-oxo-2,3-dihydro-1-benzofuran-5-yl]-3-pyridin-3-ylurea] the same measures were 58 nM, 246 nM and 1.9 nM.
On the same counts, the results for `COc1ccc2[nH]cc(/C=C3\Oc4cc(O)ccc4C3=O)c2c1` [Example 414, (2Z)-6-Hydroxy-2-[(5-methoxy-1H-indol-3-yl)methylene]-1-benzofuran-3(2H)-one] are 1850 nM, 281 nM and 55 nM.
On the same counts, the results for `CNC(=O)Nc1ccc2c(c1)C(=O)/C(=C/c1c(C(C)(C)C)[nH]c3ccc(OC)cc13)O2` [Compound 631, 1-{(2Z)-2-[(2-tert-butyl-5-methoxy-1H-indol-3-yl)methylidene]-3-oxo-2,3-dihydro-1-benzofuran-5-yl}-3-methylurea] are 2 nM, 54.5 nM and 5 nM.

For the origin of these results see patent US20090311217A1, “3-SUBSTITUTED-1H-INDOLE COMPOUNDS, THEIR USE AS MTOR KINASE AND PI3 KINASE INHIBITORS, AND THEIR SYNTHESES” (priority 2008, published 2009).
